Series [1] concerns mesolimbic dopaminergic pathways. Put plainly: Verticalization test using apomorphine in mice. In kind it is in vivo, male CF (Charles River) mice. As to conditions: for ED50: Mus musculus, sc, read-out: Verticalization (Apomorphine) DI50. How it is done: (§1) An activity in these tests appears to reflect blocking of the mesolimbic dopaminergic pathways, which are believed to be hyperactive in schizophrenics, as described by P. C.
The experiment was performed on male CF (Charles River) mice of average weight 25 g. thirty minutes before the start of the test, each mouse was placed in a cylindrical cage (O12 cm 14 cm), with vertical metal bars and a smooth plastic lid, after having received a subcutaneous injection of solvent or of product. […] At T10 (10 minutes) and at T20 (20 minutes), a score was attributed to each animal after observation for approximately one minute:
score 0 (4 feet on the floor);
score 1 (animal raised on hind legs, forefeet on the vertical bars);
score 2 (animal gripping on to the bars with all 4 feet).
The total score of the 2 measurements then represents the verticalization value of the animal, which is used for the statistical analysis.

Series [2] has the same test system. Put plainly: Test of the motor activity induced by amphetamine. It is filed as in vivo, male Wistar rats. To be noted: for ED50: Rattus norvegicus, sc, read-out: Locomotion (Amphetamine) DI50. How it is done:
motor activity inhibition induced by amphetamine (which increases the release of catecholamines) according to the procedure described by A. A. Mengens, cited above.
as §1
Male Wistar rats (200-220 g) were placed in transparent polycarbonate individual cages the night before the test. The locomotor activity was recorded using photoelectric cells (Systeme Lablinc, Coulbourn) connected via an interface to a microcomputer. There are two transverse banks of photoelectric cells per cage. The test takes place under artificial light, starting from 1.00 p.m., during daylight hours. The product or solvent was administered to the animal subcutaneously, 30 minutes before the start of the test.

Series [3] is described as follows: Induction of catalepsy in rats. As to conditions: rat, in vivo, sc. On the set-up: species or system male Wistar rats. The text has this: In order to determine the potential of the compounds of the invention to generate a syndrome of extrapyramidal type, the capacity to induce a catalepsy in rats was examined. This phenomenon is due to an antagonism of the nigrostriatal dopaminergic transmission.
Male Wistar rats (220-240 g) were placed in individual cages and food was witheld the night before the test. The test used to evaluate the cataleptogenic properties of a product consists in placing each of the animal's hind feet on the forefoot located on the same side and in measuring the time in seconds for which the animal kept this "crossed feet" position, up to 30 seconds, as described by P. C. […] Each animal underwent three tests, at intervals of one minute; the average value of the three tests then represents the catalepsy time of the animal, which is used for the statistical analysis. The product to be tested was administered to the animal subcutaneously, 30 minutes before the test.
The effective cataleptogenic dose ED5.sbsb.0 is that which induces catalepsy for an average duration of 15 seconds, that is to say for 50% of the maximum duration of the test (30 seconds).

For series [4], the system named is adrenergic (α1) receptors. To be noted: cited from earlier work.
Another series concerns schizophrenia. To be noted: cited from earlier work.
A further series deals with 5-HT1A receptors. As to conditions: unlike haloperidol; cited from earlier work.
Another series concerns the target D2 (Rattus norvegicus, UniProt P61169). Put plainly: biochemical. As to conditions: binding; read-out: Receptor Profile (pKi) D2 (converted).
In the next series the target is T1, 5-HT1A (Rattus norvegicus, UniProt P19327).
T1 sequence (P19327 1-422): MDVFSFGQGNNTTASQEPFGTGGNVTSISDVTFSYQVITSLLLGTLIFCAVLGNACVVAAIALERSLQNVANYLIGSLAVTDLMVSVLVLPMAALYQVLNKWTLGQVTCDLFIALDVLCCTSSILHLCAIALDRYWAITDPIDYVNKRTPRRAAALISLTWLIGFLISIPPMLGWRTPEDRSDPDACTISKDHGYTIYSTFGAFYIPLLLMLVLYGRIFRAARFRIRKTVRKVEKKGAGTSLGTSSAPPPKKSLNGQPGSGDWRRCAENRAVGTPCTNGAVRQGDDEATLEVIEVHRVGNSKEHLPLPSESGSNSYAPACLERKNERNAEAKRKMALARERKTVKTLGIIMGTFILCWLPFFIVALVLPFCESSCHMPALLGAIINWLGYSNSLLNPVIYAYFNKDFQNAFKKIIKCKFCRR
Put plainly: biochemical. As to conditions: binding; read-out: Receptor Profile (pKi) 5-HT1A (converted).

A further series has as its target T2, 5-HT2A (Rattus norvegicus, UniProt P14842).
T2 construct: from tissue
Put plainly: Receptor profile, binding studies (5-HT2A). As to conditions: Receptor Profile (pKi) 5-HT2A.

The target of the next series is T3, 5-HT2C (Sus scrofa, UniProt K7GSR7).
T3 construct: from tissue
T3 sequence (K7GSR7 1-457): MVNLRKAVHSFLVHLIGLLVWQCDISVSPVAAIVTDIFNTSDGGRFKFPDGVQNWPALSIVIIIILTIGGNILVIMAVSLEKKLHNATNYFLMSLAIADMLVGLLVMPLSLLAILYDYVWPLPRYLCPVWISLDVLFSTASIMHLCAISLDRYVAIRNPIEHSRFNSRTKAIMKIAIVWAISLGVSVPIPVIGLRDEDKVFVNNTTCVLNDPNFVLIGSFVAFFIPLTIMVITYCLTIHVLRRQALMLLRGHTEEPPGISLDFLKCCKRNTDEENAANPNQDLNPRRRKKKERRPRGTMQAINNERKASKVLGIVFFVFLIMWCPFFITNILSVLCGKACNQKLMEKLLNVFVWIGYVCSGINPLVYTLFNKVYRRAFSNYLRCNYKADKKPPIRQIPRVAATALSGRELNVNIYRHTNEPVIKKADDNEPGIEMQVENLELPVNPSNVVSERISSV
Put plainly: Receptor profile, binding studies (5-HT2C). As to conditions: Receptor Profile (pKi) 5-HT2C.

For a further series, the target named is T4, D1 (Rattus norvegicus, UniProt P18901).
T4 construct: from tissue
T4 sequence (P18901 whole entry): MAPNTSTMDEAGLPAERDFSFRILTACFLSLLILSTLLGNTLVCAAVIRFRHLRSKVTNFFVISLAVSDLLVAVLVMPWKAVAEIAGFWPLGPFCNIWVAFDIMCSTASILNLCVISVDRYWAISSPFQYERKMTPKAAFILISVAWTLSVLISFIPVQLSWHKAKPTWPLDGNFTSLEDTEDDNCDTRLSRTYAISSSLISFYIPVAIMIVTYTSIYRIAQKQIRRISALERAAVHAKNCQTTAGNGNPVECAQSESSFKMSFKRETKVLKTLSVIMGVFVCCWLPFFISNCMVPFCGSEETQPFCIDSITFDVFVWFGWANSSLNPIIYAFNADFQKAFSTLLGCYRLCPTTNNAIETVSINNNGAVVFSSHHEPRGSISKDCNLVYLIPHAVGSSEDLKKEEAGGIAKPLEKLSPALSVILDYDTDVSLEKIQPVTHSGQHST
Put plainly: Receptor profile, binding studies (D1). To be noted: read-out: Receptor Profile (pKi) D1 (converted).

The next series deals with α1. Put plainly: Receptor profile, binding studies (α1).
Setting [5] is: mice, s.c. 30 min before, apomorphine 0.75 mg/kg s.c., Inhibitory Dose50, 95% confidence limits.
[6] abbreviates: rats, s.c. 30 min before, D-amphetamine 2.5 mg/kg i.p., 1 hour, Inhibitory Dose50, 95% confidence limits.

The structures appear in SMILES notation. Structures can show the parent of a compound that is named as a salt. Where two headings read alike, the source gives them in different places.

D2, sequence (P61169 whole entry): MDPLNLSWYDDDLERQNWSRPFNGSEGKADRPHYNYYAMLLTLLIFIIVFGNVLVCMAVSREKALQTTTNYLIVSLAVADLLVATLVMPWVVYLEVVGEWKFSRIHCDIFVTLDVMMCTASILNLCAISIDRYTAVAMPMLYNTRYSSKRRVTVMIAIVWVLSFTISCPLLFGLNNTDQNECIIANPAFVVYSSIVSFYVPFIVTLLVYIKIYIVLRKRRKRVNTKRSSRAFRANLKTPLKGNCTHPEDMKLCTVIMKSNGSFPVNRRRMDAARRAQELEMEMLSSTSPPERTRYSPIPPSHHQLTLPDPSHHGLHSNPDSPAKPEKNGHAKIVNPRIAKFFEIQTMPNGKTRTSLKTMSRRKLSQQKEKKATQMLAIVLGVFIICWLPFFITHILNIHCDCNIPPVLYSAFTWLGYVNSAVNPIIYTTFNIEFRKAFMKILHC
T2 sequence (P14842 whole entry): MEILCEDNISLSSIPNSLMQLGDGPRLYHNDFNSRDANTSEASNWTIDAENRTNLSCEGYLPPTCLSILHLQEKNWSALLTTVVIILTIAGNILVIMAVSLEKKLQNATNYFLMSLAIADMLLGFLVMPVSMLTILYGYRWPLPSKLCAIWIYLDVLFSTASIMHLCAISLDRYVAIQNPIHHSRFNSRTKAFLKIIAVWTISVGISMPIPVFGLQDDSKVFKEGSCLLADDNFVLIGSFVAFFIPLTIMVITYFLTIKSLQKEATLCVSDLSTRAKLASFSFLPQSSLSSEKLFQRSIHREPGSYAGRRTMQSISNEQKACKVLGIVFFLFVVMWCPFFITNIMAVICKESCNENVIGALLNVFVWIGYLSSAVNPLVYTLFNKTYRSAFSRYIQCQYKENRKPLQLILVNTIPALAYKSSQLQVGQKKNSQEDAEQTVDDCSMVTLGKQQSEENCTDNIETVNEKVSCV

As to `CN1CCN(C2=Nc3cc(Cl)ccc3Nc3ccccc32)CC1` [Clozapine, clozapine], the ED50 worked out at 2.22 mg/kg in series [1] (setting [5]) and 12.8 mg/kg in series [2] (setting [6]). Moreover, the ED50 at 0.5 h in series [3] (rats, s.c. 30 min before, dose inducing catalepsy for an average of 15 seconds (50% of maximum), read-out: Induction of the catalepsy DE50) is > 40 mg/kg. Further, in [4], the “affinity for the adrenergic (α1) receptors” value is “relatively high affinity”. Further, the “toxicity in the general treatment of schizophrenic states” value in the series on schizophrenia (human, in vivo) is “on account of its toxicity, clozapine cannot be envisaged in the general treatment of schizophrenic states”. Further, in the series on schizophrenia (schizophrenia), the extrapyramidal syndrome entry is given as “appears not to bring about an extrapyramidal syndrom”. The “affinity for the 5-HT1A receptors” value in the series on 5-HT1A receptors is reported as “a certain affinity for the 5-HT1A receptors”.

In the case of `Cl.Fc1ccc2c(CC3CCN(CCOc4cccc5c4OCCO5)C3)n[nH]c2c1` (stereo not shown) [Example 7, 5-{2-[3-[(6-Fluoro-1H-indazol-3-yl)methyl]pyrrolidin-1-yl]ethoxy}-1,4-benzodioxane hydrochloride], the Ki at D2 was 53.7 nM; on 5-HT1A, 1.7 nM; at 5-HT2A, 21.9 nM; at 5-HT2C, 93.3 nM. Also, the ED50 in [1] (setting [5]) amounted to 0.41 mg/kg.

Turning to `Cl.Fc1ccc2c(CC3CCN(CCOc4cccc5c4OCCO5)C3)noc2c1` (stereo not shown) [Example 8, 5-{2-[3-[(6-Fluoro-1,2-benzisoxazol-3-yl)methyl]pyrrolidin-1-yl]ethoxy}-1,4-benzodioxane hydrochloride], the Ki at D2 was 257 nM; at 5-HT1A it was 3.89 nM; at 5-HT2A, 13.2 nM; on 5-HT2C, 95.5 nM. The ED50 in series [1] (setting [5]) was ~0.63 mg/kg.

With `O=C(CC1CCN(CCOc2cccc3c2OCCO3)C1)c1ccc(F)cc1` (stereo not shown) [Example 2, 5-{2-[3-(4-Fluorobenzoylmethyl)pyrrolidin-1-yl}-1,4-benzodioxane hydrochloride], the Ki on D1 was 251 nM; at D2, 43.7 nM; on 5-HT1A, 4.9 nM; on 5-HT2A it was 3.98 nM; on 5-HT2C, 7.94 nM. The “Receptor Profile (pKi) α1” value at α1 was determined as 8.61. The ED50 in series [1] (setting [5]) worked out at 0.28 mg/kg; in series [2] (setting [6]), 2.17 mg/kg. Moreover, in series [3], the ED50 at 0.5 h was > 40 mg/kg.

Regarding `O=C(CC1CCN(CCOc2cccc3c2OCCO3)C1)c1ccc(F)cc1` (single isomer, unassigned) [Example 6, 5-{2-[3-(4-Fluorobenzoylmethyl)pyrrolidin-1-yl]ethoxy}-1,4-benzodioxane hydrochloride, (-) isomer], the Ki at D1 is 204 nM; on D2, 53.7 nM; on 5-HT1A, 3.63 nM; at 5-HT2A, 2.4 nM; at 5-HT2C, 6.61 nM. Also, the “Receptor Profile (pKi) α1” value on α1 (listed as ex. 6) was determined as 8.93. In series [1] (mice, s.c. 30 min before, apomorphine 0.75 mg/kg s.c., Inhibitory Dose50, 95% confidence limits, listed as Ex. 6), the “Verticalization (Apomorphine) DI50” value amounted to 0.25 mg/kg. Besides, the “Locomotion (Amphetamine) DI50” value in [2] (rats, s.c. 30 min before, D-amphetamine 2.5 mg/kg i.p., 1 hour, Inhibitory Dose50, 95% confidence limits, listed as Ex. 6) is on record as 1.94 mg/kg.

Take `O=C(CCCN1CCC(O)(c2ccc(Cl)cc2)CC1)c1ccc(F)cc1` [Haloperidol, haloperidol, reference compound]: the ED50 in [1] worked out at 0.013 mg/kg. The ED50 in series [2] stood at 0.043 mg/kg. In [3], this compound registered an ED50 at 0.5 h of 0.156 mg/kg. In addition, in the series with schizophrenia (schizophrenia), the “effectiveness for the productive symptoms (such as fabulation and hallucinations)” value is on record as “quite good care for the productive symptoms”; the “effectiveness with regard to deficiency symptoms (such as social withdrawal)” value was “very poor”; the extrapyramidal syndrome entry is listed as “induce an extrapyramidal syndrome of Parkinson type”.

Consider `O=C(CC1CCN(CCOc2cccc3c2OCCO3)C1)c1ccc(F)cc1` (single isomer, unassigned) [Example 5, 5-{2-[3-(4-Fluorobenzoylmethyl)pyrrolidin-1-yl]ethoxy}-1,4-benzodioxane hydrochloride, (+) isomer], for which the Ki at D1 is 275 nM; at D2 it was 46.8 nM; on 5-HT1A, 4.79 nM; on 5-HT2A, 3.31 nM; at 5-HT2C it was 9.33 nM. Besides, the “Receptor Profile (pKi) α1” value on α1 (listed as ex. 5) worked out at 8.19. In addition, the ED50 was determined as 0.26 mg/kg in [1] (setting [5]) and 2.8 mg/kg in series [2] (setting [6]). Besides, in [3], the ED50 at 0.5 h is > 40 mg/kg.

The values are drawn from patent publication US5500443A, “New benzodioxane compounds” (Adir et Compagnie, priority 1994, dated 1996).
